# Measurements taken from patent publication US20240182867A1, “CHEMICAL REPROGRAMMING OF HUMAN SOMATIC CELLS INTO PLURIPOTENT CELLS” (Peking University, priority 2021, published 2024).
# Counter-ions that a name gives are not always drawn.
# Legend:
# [1] = test system: fibroblast marker genes (somatic program); assay: Withdrawing individual chemicals from stage I: fibroblast marker genes; format: cell-based, human; conditions: compound removed from stage I condition
# Method: (§1) In several experiments, to testing the reprogramming efficiency after removing each small molecules, the indicated small molecules were removed from the cocktails. The concentration of the small molecules used to regulate the same pathway or targets were indicated as follow: GSK3 inhibitors (CHIR99021: 3-15 μM; TD114-2: 0.5-2 μM; CHIR98014: 1-3 μM; GSK3βi XV: 0.05-0.2 μM); RA pathway agonists (TTNPB: 0.5-10 μM; […] AM580: 0.1-1 μM); Rock inhibitors (TZV: 2-10 μM; Y27632: 2-15 μM; Fasudil: 2-10 μM; HA1100: 2-10 μM); TGFβ inhibitors ([…]: 0.1-5 μM; SB431542: 2-50 μM; LY364947: 0.5 μM; LY21: 0.5 μM; 616452: 10 μM). […] The data were analyzed using the delta-delta Ct method. GAPDH was used as a control to normalize the expression of target genes.
# human somatic cells [2] = assay: hCiPSC colonies at the end of reprogramming after withdrawing individual chemicals from stage I or II; format: cell-based; conditions: factor removed
# Method: (§2) Cells were maintained at 37° C. with 21% 02 and 5% CO2. The induction medium was changed every 3-4 days. HEFs were seeded at a density of 1-1.5×10^4 cells per well of a 12-well plate in 15%. FBS-DMEM medium. Change the medium into stage I induction medium on the next day. For stage I induction, single layer epithelial-like cells would emerge at day 4-6 and approach 80%-100% confluence at day 8-12, then change the medium into stage II induction medium. For stage II induction, multi-layered colonies appeared after 8-12 days treatment and these cell colonies would continually grow larger. After totally 16-20 days' stage II treatment, change the medium into stage III condition. For stage III induction, 8-12 days treatment of stage III medium is required and then change the medium into stage IV condition. For stage IV induction, VPA (500 μM) was included in the first 4 days. Primary hCiPSC colonies would emerge after 6-8 days' treatment. At the end of stage IV, immunofluorescent staining of co-expression of OCT4 and NANOG was used to confirm the generation of primary hCiPSC colonies. Primary hCiPSC colony number was calculated as the number of the compact OCT4 positive colonies. Reprogramming efficiency was calculated as the number of primary hCiPSC colonies divided by the number of input HEFs.
# In several experiments, to testing the reprogramming efficiency after removing each small molecules, the indicated small molecules were removed from the cocktails. The concentration of the small molecules used to regulate the same pathway or targets were indicated as follow: GSK3 inhibitors (CHIR99021: 3-15 μM; TD114-2: 0.5-2 μM; CHIR98014: 1-3 μM; GSK3βi XV: 0.05-0.2 μM); RA pathway agonists (TTNPB: 0.5-10 μM; Ch55: 1-5 μM; AM580: 0.1-1 μM); Rock inhibitors (TZV: 2-10 μM; Y27632: 2-15 μM; Fasudil: 2-10 μM; HA1100: 2-10 μM); TGFβ inhibitors (A8301: 0.1-5 μM; SB431542: 2-50 μM; LY364947: 0.5 μM; LY21: 0.5 μM; 616452: 10 μM).
# (§3) In several experiments, to testing the reprogramming efficiency after regulate each small molecules, the indicated small molecules were removed from the cocktails. The concentration of the small molecules used to targeting the same pathway or targets were indicated as follow: GSK3 inhibitors (CHIR99021: 3-15 μM; TD114-2: 0.5-2 μM; CHIR98014: 1-3 μM; GSK3βi XV: 0.05-0.2 μM); TGFβ inhibitors (A8301: 0.2-5 μM; SB431542: 2-50 μM; 616452: 10 μM); RA pathway agonists (TTNPB: 0.2-10 μM; Ch55: 1-10 μM; AM580: 0.1-1 μM); Rock inhibitors (Y27632: 2-15 μM; Fasudil: 2-10 μM; HA1100: 2-10 μM; TZV: 2-10 μM); Smoothened agonists (SAG: 0.2-2 μM; Purmorphamine: 0.5-2 μM; Hg-Ag1.5: 0.5-1 μM; Human shh: 20-200 μM); histone demethylation inhibitors (Tranylcypromine: 2-50 μM; GSK2879: 0.02-2 μM; LSD-C76: 0.2-5 μM; S2101: 0.5-5 μM; LSD-2D: 0.2-5 μM; RN-1: 0.2-5 μM); DNMT inhibitors (5-azaC: 2-15 μM; Decitabine: 0.5-10 μM; RG108: 0.5-10 μM); JNK inhibitors (JNK-in-8: 0.2-2 μM; JNK-in-5: 0.5-1 μM; JNK-in-7: 0.2-2 μM; JNK-in-12: 0.2-0.5 μM); CBP/p300 bromodomain inhibitor (SGC-CBP30: 0.5-2 μM; I-CBP112: 0.5-5 μM; GNE272: 0.5-5μM; GNE409:0.5-5μM); Menin-MLL interaction inhibitor (VTP50469: 0.5-2μM; MI3454: 0.5-2μM; WDR5-IN-4: 0.5-2μM).
# LIN28A = assay: Withdrawing individual chemicals from stage I: LIN28A expression; format: cell-based, human; conditions: compound removed from stage I condition
# Method: as §1
# human somatic cells [3] = assay: Reprogramming efficiency with supplemental inhibitors; format: cell-based; conditions: inhibitor added to induction medium
# Method: KnockOut™ DMEM supplemented with 10% KSR, 10% FBS, 1% GlutaMAX™, 1% NEAA, 0.055 mM 2-mercaptoethanol, 1% Penicillin-Streptomycin, 50 μg/ml Vc2p, 5 mM LiCl, 1 mM NAM, 100 ng/ml bFGF (Origene) and the small molecules CHIR99021 (10-12 μM), 616452 (10 μM), TTNPB (2 μM), SAG (0.5 μM), ABT-869 (1 μM), Y-27632 (10 μM), JNKIN8 (1 μM), Tranylcypromine (2 μM), 5-Azacytidine (5 μM), UNC0224 (1 μM), Ruxolitinib (1 μM), BIRB796 (2 μM), Dorsormorphin (0.5-1 μM). To enhance the reprogramming efficiency, the CBP/p300 bromodomain inhibitor SGC-CBP30 (2 μM) and Menin-MLL interaction inhibitor VTP50469 were introduced in stage II induction medium.
# as §3, with “0.5-2μM). […]” for “0.5-2μM).”
# human somatic cells [4] = assay: Replacement of small molecules by others targeting the same pathway; format: cell-based; conditions: for replacement of ABT 869: receptor tyrosine kinase inhibitor; for replacement of IWP-2: Wnt inhibitor
# Method: VPA (500 μM), Tranylcypromine (10 μM), DZNep (0.05 μM), and EPZ004777 (5 μM) were included in the first 4 days. In several experiments, to testing the reprogramming efficiency after removing each small molecules, the indicated small molecules were removed from the cocktails.
# human fibroblasts = assay: Conversion of human fibroblasts into monolayer epithelial-like cells; format: cell-based; conditions: added into the combination CHIR99021, 616452 and TTNPB
# Method: KnockOut™ DMEM (Gibco, 10829018) supplemented with 10% Knockout Serum Replacement (KSR) (Gibco, 10828028), 10% FBS, 1% GlutaMAX™, 1% NEAA, 1% Penicillin-Streptomycin, 0.055 mM 2-mercaptoethanol, 50 μg/ml L-Ascorbic acid 2-phosphate (Vc2P) (Sigma, A8960), 5 mM LiCl (Sigma, L4408), 1 mM Nicotinamide (NAM) (Sigma, 72340), 2 mg/mL AlbuMAX™-II (Gibco, 11021045) and the small molecules CHIR999021 (10 μM), 616452 (10 μM), TTNPB (2 μM), SAG (0.5 μM), ABT-869 (1 μM), Rock inhibitor (Y-27632 (2 μM) or Tzv (2 μM))
# as §2
smiles,measurement,setting,value
"C/C(=C\c1ccc(C(=O)O)cc1)c1ccc2c(c1)C(C)(C)CCC2(C)C [TTNPB, 4-[(E)-2-(5,6,7,8-Tetrahydro-5,5,8,8-tetramethyl-2-naphthalenyl)-1-propenyl]benzoic acid]",downregulation of the somatic program,[1],inhibited
same,generation of hCiPSCs,human somatic cells [2],greatly impaired
same,LIN28A activation,LIN28A,severely reduced
"Cc1cccc(-c2n[nH]cc2-c2ccc3ncccc3n2)n1 [compound 616452, 2-(3-(6-Methylpyridin-2-yl)-1H-pyrazol-4-yl)-1,5-naphthyridine]",downregulation of the somatic program,[1],inhibited
same,generation of hCiPSCs,human somatic cells [2],greatly impaired
same,LIN28A activation,LIN28A,severely reduced
CC(=O)N1CCc2c(c(Nc3ccc(-c4cnn(C)c4)cc3F)nn2[C@H]2CCOC2)C1 [GNE272],reprogramming efficiency,human somatic cells [3],can improve
"COc1cc2ncc(-c3ccccc3)nc2cc1OC [AG1296, 6,7-Dimethoxy-3-phenylquinoxaline]",replacement of ABT 869,human somatic cells [4],able to replace ABT 869
"Cc1ccc(F)c(NC(=O)Nc2ccc(-c3cccc4[nH]nc(N)c34)cc2)c1 [ABT869, N-[4-(3-amino-1H-indazol-4-yl)phenyl]-N′-(2-fluoro-5-methylphenyl)-urea]",generation of the epithelial-like cells,human fibroblasts,can facilitate
O=C(Nc1cccc2cccnc12)c1ccc(N2C(=O)[C@@H]3[C@H](C2=O)[C@@H]2C=C[C@H]3C2)cc1 [IWR-1],replacement of IWP-2,human somatic cells [4],able to replace IWP-2
"COc1ccc(CCc2nc3cc(-c4c(C)noc4C)ccc3n2C[C@H](C)N2CCOCC2)cc1Cl [SGC-CBP30, 2-[2-(3-chloro-4-methoxyphenyl)ethyl]-5-(3,5-dimethyl-4-isoxazolyl)-1-[(2S)-2-(4-morpholinyl)propyl]-1H-benzimidazole]",reprogramming efficiency,human somatic cells [3],can improve
CCC(=O)N1CCOc2c(cc(-c3ccc(OC)c(OC)c3)cc2OC[C@H]2CCCN(C)C2)C1 [I-CBP112],reprogramming efficiency,human somatic cells [3],can improve
"Cc1cnc(-c2cnc(NCCNc3ccc(C#N)cn3)nc2-c2ccc(Cl)cc2Cl)[nH]1 [CHIR99021, 6-[[2-[[4-(2,4-Dichlorophenyl)-5-(5-methyl-1H-imidazol-2-yl)-2-pyrimidinyl]amino]ethyl]amino]-3-pyridinecarbonitrile]",downregulation of the somatic program,[1],inhibited
same,generation of hCiPSCs,human somatic cells [2],greatly impaired
same,LIN28A activation,LIN28A,severely reduced
CNC1CCC(N(Cc2cccc(-c3ccncc3)c2)C(=O)c2sc3ccccc3c2Cl)CC1 (centres unmarked) [SAG],generation of the epithelial-like cells,human fibroblasts,can facilitate
"C[C@@H](N)[C@H]1CC[C@H](C(=O)Nc2ccncc2)CC1 [Y27632, (+)-(R)-trans-4-(1-aminoethyl)-N-(4-pyridyl)cyclohexanecarboxamide+++dihydrochloride]",generation of the epithelial-like cells,human fibroblasts,can facilitate
"Cc1cc(-c2ccc(CC(=O)Nc3ccc(-c4cccnc4)cc3)cc2)ccn1 [WNT-C59, 4-(2-Methyl-4-pyridinyl)-N-[4-(3-pyridinyl)phenyl]benzeneacetamide]",replacement of IWP-2,human somatic cells [4],able to replace IWP-2
Clc1ccc(Nc2nnc(Cc3ccncc3)c3ccccc23)cc1 [Valatanib],replacement of ABT 869,human somatic cells [4],able to replace ABT 869
"O=c1[nH]c(-c2ccc(C(F)(F)F)cc2)nc2c1CSCC2 [XAV-939, 3,5,7,8-Tetrahydro-2-[4-(trifluoromethyl)phenyl]-4H-thiopyrano[4,3-d]pyrimidin-4-one]",replacement of IWP-2,human somatic cells [4],able to replace IWP-2
